Data reported in US20100125059A1, “1-BIARYLAZETIDINONE DERIVATIVE” (Teijin Pharma Limited, priority 2007, published 2010).
Read-outs that look alike come from different tables or passages of the source.

Tested on: hamsters fed a high cholesterol diet
Assay: Measurement of lipid lowering effect in hamsters fed a high cholesterol diet
Assay type: in vivo, Male Golden Syrian hamsters
Settings: Mesocricetus auratus, po, 168 h, gavage once daily, 7 days
Method: Male Golden Syrian hamsters are divided into groups each consisting of 6 animals and fed a controlled high cholesterol diet (CE-2 containing 0.5% cholesterol; CLEA Japan, Inc.) for 28 days at most. From the start of feeding of the high cholesterol diet, the test compounds are administered by gavage once daily. For the administration, 0.2 mL of corn oil alone per 100 g (control group) or a solution (or suspension) of the test compound in corn oil at a dose of 0.01 to 10 mg/kg was given. At the same time, a group fed with a normal diet during the same study period is handled as a normal group. 4 hours after the last administration, whole blood is collected from the abdominal aorta under light anesthesia with ether and serum is separated from the blood. Further, livers are harvested, wet liver weights are measured, and part (about 0.5 g) of the harvested livers are extracted and weighed. 2-propanol in an amount 4 times the weight of the extracted livers are added, the resulted mixtures are homogenized, and the centrifuged supernatant are recovered and used as liver-derived samples.
Serum and liver TC concentrations are determined by an enzyme method using L-type Wako CHO•H (Wako Pure Chemical Industries Ltd.) or Cholestest CHO (Daiichi Pure Chemicals Co., Ltd.). Serum TG concentrations are determined by an enzyme method using L-type Wako TG•H (Wako Pure Chemical Industries Ltd.) or Autosera S TG-N (Daiichi Pure Chemicals Co., Ltd.) and a free glycerine elimination method. LDL-C concentrations are determined by a direct method using L-type Wako LDL-C•M (Wako Pure Chemical Industries Ltd.) or Cholestest LDL (Daiichi Pure Chemicals Co., Ltd.). Human serum was commonly used as a sample for the calibration curve for determinations of serum and liver TC concentrations, serum TG concentration, and serum LDL-C concentration. The effect of the test compound is shown by a suppression rate (%) of an increase in serum TC concentration due to feeding of the high cholesterol diet, a serum TG lowering rate (%), a suppression rate (%) of an increase in serum LDL-C concentration due to feeding of the high cholesterol diet, and a suppression rate (%) of an increase in liver TC concentration due to feeding of the high cholesterol diet calculated in accordance with the following equations.
In the Equation 2, A is the control group, B is the test compound group, and C is the normal group.
In the Equation 3, A is the control group, B is the test compound group, and C is the normal group.
In the Equation 4, A is the control group, B is the test compound group, and C is the normal group.
In the Equation 5, A is the control group, and B is the test compound group.
The following results were obtained from the study by this method on the effects of lowering serum TC, LDL-C, and TG, and liver TC in the hamsters fed with a high cholesterol diet which were given the test compounds for 7 days.
The compounds in which pyridyl of compound of example 51 and 55 was exchanged for phenyl, were used as comparative compound 1 and 2, respectively. In the same method as Example 112, the suppression rate (%) of an increase in serum TC concentration of comparative compound 1 and 2 were calculated.

[1] = read-out: serum LDL-C lowering effect (suppression rate of an increase in serum LDL-C concentration)
[2] = read-out: serum TC lowering effect (suppression rate of an increase in serum TC concentration)
[3] = read-out: serum TG lowering effect (serum TG lowering rate)
[4] = read-out: liver TC lowering effect (suppression rate of an increase in liver TC concentration)

Row | SMILES | inhibition in vivo at 0.1 mg/kg [1] | inhibition in vivo at 0.1 mg/kg [2] | inhibition in vivo at 0.1 mg/kg [3] | other results
1 | COc1cc(Cl)ccc1[C@@H](O)CS[C@H]1C(=O)N(c2ccc(-c3cccnc3)cc2)[C@@H]1c1ccc(O)cc1 [Example 101, (3R,4R)-3-[(2R)-2-(4-chloro-2-methoxyphenyl)-2-hydroxyethylthio]-4-(4-hydroxyphenyl)-1-[4-(pyridin-3-yl)phenyl]azetidin-2-one] | ≥ 50% | ≥ 50% | – | –
2 | COc1ccncc1-c1ccc(N2C(=O)[C@H](SC[C@H](O)c3ccc(F)cc3)[C@H]2c2ccc(O)cc2O)cc1 [Example 64, (3R,4R)-3-[(2R)-2-(4-fluorophenyl)-2-hydroxyethylthio]-4-(2,4-dihydroxyphenyl)-1-[4-(4-methoxypyridin-3-yl)phenyl]azetidin-2-one] | ≥ 50% | ≥ 50% | – | –
3 | O=C1[C@H](SC[C@H](O)c2ccc(Cl)s2)[C@@H](c2ccc(O)cc2)N1c1ccc(-c2cccnc2)cc1 [Example 46, (3R,4R)-3-[(2S)-2-(5-chlorothiophen-2-yl)-2-hydroxyethylthio]-4-(4-hydroxyphenyl)-1-[4-(pyridin-3-yl)phenyl]azetidin-2-one] | – | – | ≥ 20% | –
4 | N#Cc1ncc(-c2ccc(N3C(=O)[C@H](SC[C@H](O)c4ccc(F)cc4)[C@H]3c3ccc(O)cc3)cc2)cn1 [Example 103, 5-(4-{(3R,4R)-3-[(2R)-2-(4-fluorophenyl)-2-hydroxyethylthio]-4-(4-hydroxyphenyl)-2-oxoazetidinyl}phenyl)pyrimidine-2-carbonitrile] | – | – | ≥ 20% | –
5 | Cc1ccc(-c2ccc(N3C(=O)[C@H](SC[C@H](O)c4ccc(Cl)cc4)[C@H]3c3ccc(O)cc3O)cc2)cn1 [Example 98, (3R,4R)-3-[(2R)-2-(4-chlorophenyl)-2-hydroxyethylthio]-4-(2,4-dihydroxyphenyl)-1-[4-(6-methylpyridin-3-yl)phenyl]azetidin-2-one] | – | – | – | inhibition in vivo at 0.01 mg/kg [1]: ≥ 30%
6 | O=C1[C@H](SC[C@H](O)c2ccc(Cl)c(F)c2)[C@@H](c2ccc(O)cc2)N1c1ccc(-c2cncc(F)c2)cc1 [Example 82, (3R,4R)-3-[(2R)-2-(4-chloro-3-fluorophenyl)-2-hydroxyethylthio]-1-[4-(5-fluoropyridin-3-yl)phenyl]-4-(4-hydroxyphenyl)azetidin-2-one] | ≥ 50% | ≥ 50% | – | –
7 | O=C1[C@H](SC[C@H](O)c2ccc(Cl)cc2O)[C@@H](c2ccc(O)cc2)N1c1ccc(-c2cccnc2)cc1 [Example 89, (3R,4R)-3-[(2R)-2-(4-chloro-2-hydroxyphenyl)-2-hydroxyethylthio]-4-(4-hydroxyphenyl)-1-[4-(pyridin-3-yl)phenyl]azetidin-2-one] | ≥ 50% | ≥ 50% | – | –
8 | Cc1cc(Cl)ccc1[C@@H](O)CS[C@H]1C(=O)N(c2ccc(-c3cccnc3)cc2)[C@@H]1c1ccc(O)cc1 [Example 102, (3R,4R)-3-[(2R)-2-(4-chloro-2-methylphenyl)-2-hydroxyethylthio]-4-(4-hydroxyphenyl)-1-[4-(pyridin-3-yl)phenyl]azetidin-2-one] | ≥ 50% | ≥ 50% | – | inhibition in vivo at 0.1 mg/kg [4]: ≥ 50%
9 | O=Cc1cncc(-c2ccc(N3C(=O)[C@H](SC[C@H](O)c4ccc(F)cc4)[C@H]3c3ccc(O)cc3)cc2)c1 [Example 71, 5-(4-{(3R,4R)-3-[(2R)-2-(4-fluorophenyl)-2-hydroxyethylthio]-4-(4-hydroxyphenyl)-2-oxoazetidinyl}phenyl)pyridine-3-carbaldehyde] | ≥ 50% | ≥ 50% | – | –
10 | O=C1[C@H](SC[C@H](O)c2ccc(F)cc2)[C@@H](c2ccc(O)cc2)N1c1ccc(-c2ccc(C(F)(F)F)cn2)cc1 [Example 3, (3R,4R)-3-[(2R)-2-(4-fluorophenyl)-2-hydroxyethylthio]-4-(4-hydroxyphenyl)-1-[4-(5-trifluoromethylpyridin-2-yl)phenyl]azetidin-2-one] | – | – | ≥ 20% | –
11 | O=C1[C@H](SC[C@H](O)c2ccc(Cl)cc2)[C@@H](c2ccc(O)cc2)N1c1ccc(-c2cncnc2)cc1 [Example 69, (3R,4R)-3-[(2R)-2-(4-chlorophenyl)-2-hydroxyethylthio]-4-(4-hydroxyphenyl)-1-[4-(pyrimidin-5-yl)phenyl]azetidin-2-one] | – | – | – | inhibition in vivo at 0.01 mg/kg [1]: ≥ 30%; inhibition in vivo at 0.01 mg/kg [2]: ≥ 30%
12 | O=C1[C@H](SC[C@H](O)c2ccc(Cl)cc2)[C@@H](c2ccc(O)cc2O)N1c1ccc(-c2cccnc2)cc1 [Example 62, (3R,4R)-3-[(2R)-2-(4-chlorophenyl)-2-hydroxyethylthio]-4-(2,4-dihydroxyphenyl)-1-[4-(pyridin-3-yl)phenyl]azetidin-2-one] | ≥ 50% | ≥ 50% | – | –
13 | CCNC(=O)c1cncc(-c2ccc(N3C(=O)[C@H](SC[C@H](O)c4ccc(Cl)cc4)[C@H]3c3ccc(O)cc3)cc2)c1 [Example 106, N-ethyl-5-(4-{(3R,4R)-3-[(2R)-2-(4-chlorophenyl)-2-hydroxyethylthio]-4-(4-hydroxyphenyl)-2-oxoazetidinyl}phenyl)pyridine-3-carboxamide] | ≥ 50% | – | – | –
14 | Cc1cc(O)ccc1[C@@H]1[C@@H](SC[C@H](O)c2ccc(F)cc2)C(=O)N1c1ccc(-c2cncnc2)cc1 [Example 100, (3R,4R)-3-[(2R)-2-(4-fluorophenyl)-2-hydroxyethylthio]-4-(4-hydroxy-2-methylphenyl)-1-[4-(pyrimidin-5-yl)phenyl]azetidin-2-one] | ≥ 50% | ≥ 50% | ≥ 20% | –
15 | O=C1[C@H](SC[C@H](O)c2ccc(F)cc2F)[C@@H](c2ccc(O)cc2)N1c1ccc(-c2cccnc2)cc1 [Example 30, (3R,4R)-3-[(2R)-2-(2,4-difluorophenyl)-2-hydroxyethylthio]-4-(4-hydroxyphenyl)-1-[4-(pyridin-3-yl)phenyl]azetidin-2-one] | ≥ 50% | ≥ 50% | – | inhibition in vivo at 0.1 mg/kg [4]: ≥ 50%
16 | O=C1[C@H](SC[C@H](O)c2ccc(F)cc2)[C@@H](c2ccc(O)cc2O)N1c1ccc(-c2cncc(Cl)c2)cc1 [Example 92, (3R,4R)-3-[(2R)-2-(4-fluorophenyl)-2-hydroxyethylthio]-4-(2,4-dihydroxyphenyl)-1-[4-(5-chloropyridin-3-yl)phenyl]azetidin-2-one] | – | – | ≥ 20% | inhibition in vivo at 0.01 mg/kg [1]: ≥ 30%; inhibition in vivo at 0.01 mg/kg [2]: ≥ 30%
17 | O=C1[C@H](SC[C@H](O)c2ccc(Cl)cc2)[C@@H](c2ccc(O)cc2O)N1c1ccc(-c2cncc(F)c2)cc1 [Example 72, (3R,4R)-3-[(2R)-2-(4-chlorophenyl)-2-hydroxyethylthio]-4-(2,4-dihydroxyphenyl)-1-[4-(5-fluoropyridin-3-yl)phenyl]azetidin-2-one] | ≥ 50% | ≥ 50% | – | –
18 | O=C1[C@H](SC[C@H](O)c2ccc(F)cc2)[C@@H](c2ccc(O)cc2O)N1c1ccc(-c2cncc(F)c2)cc1 [Example 73, (3R,4R)-3-[(2R)-2-(4-fluorophenyl)-2-hydroxyethylthio]-4-(2,4-dihydroxyphenyl)-1-[4-(5-fluoropyridin-3-yl)phenyl]azetidin-2-one] | ≥ 50% | ≥ 50% | – | inhibition in vivo at 0.01 mg/kg [2]: ≥ 30%
19 | CCNC(=O)c1cncc(-c2ccc(N3C(=O)[C@H](SC[C@H](O)c4ccc(F)cc4)[C@H]3c3ccc(O)cc3)cc2)c1 [Example 49, N-ethyl-5-(4-{(3R,4R)-3-[(2R)-2-(4-fluorophenyl)-2-hydroxyethylthio]-4-(4-hydroxyphenyl)-2-oxoazetidinyl}phenyl)pyridine-3-carboxamide] | ≥ 50% | ≥ 50% | ≥ 20% | –
